Assay results: article PMC6315057, “Industrial scale high-throughput screening delivers multiple fast acting macrofilaricides” (Nature Communications, 2019)
pIC50: −log10 of the molar value. In brackets after ≈: the same amount, converted by molar mass.

How the values were obtained:
Rat hepatocyte clearance = format: in vitro ADME
Text: (§1) The DMPK data used for triaging compounds, including LogD7.4, aqueous solubility, plasma protein binding, microsome and hepatocyte clearance measurements, were generated using the standard AstraZeneca UK high-throughput platform[37],[38].

[1] = Aqueous solubility in pH 7.4 PBS; format: physicochemical; conditions: for solubility: PBS pH 7.4, aqueous buffer, pH 7.4 PBS, read-out: Aqueous solubility in pH7.4 PBS
Text: as §1

[2] = system: Wolbachia within Brugia malayi Mf; test: Anti-Wolbachia time-kill analysis (timed wash-out) in B. malayi Mf; format: cell-based; conditions: 10x EC50, 1 day exposure, wash, 6-day read out, normalised to vehicle control
Text: To compare the dynamics of the in vitro phenotype of our hits with existing anti-Wolbachia therapies, we employed a timed wash-out strategy (Fig. 5) at 10x EC50 to establish the anti-Wolbachia time-kill kinetics of the selected chemotypes (1A–5A), using five replicates per compound. […].
Fig. 5 Anti-Wolbachia time-kill analysis. Representatives from the top five clusters (1A–5A), as well as established anti-Wolbachia antibacterials (doxycycline (white), minocycline (grey), rifampicin (black)) were assessed after exposure for 1 day and 2 days before washing and further incubation until the standard 6-day read out. wsp:gst ratio was normalised to the DMSO vehicle control resulting in a read out of mean percentage reduction from control. Doxycycline day 6 treatment represents the result for exposure to doxycycline at 5 µM for a full 6 days (no wash). The box extends from the 25th to the 75th percentile with the median presented by the central line. The whiskers are set at the minimum and maximum therefore indicating the range from five replicates. The cluster number is indicated by colour: cluster 1 (dark blue), 2 (magenta), 3 (teal), 4 (dark gold), and 5 (light blue)
The Mf were obtained by peritoneal lavage, using a catheter, of gerbils (Meriones unguiculatus) harbouring a patent infection of B. malayi. Mf were purified using a PD-10 desalting column (Fisher), centrifuged (311 RCF for 5 min at room temperature) before the addition of 8000 Mf/well of a 96-well plate (100 µl per well) in complete media consisting of RPMI supplemented with 10% FBS, 1% penicillin streptomycin and 1% amphotericin B. Compounds were diluted in complete media and 100 µl was added per well, providing a final concentration of 5 µM, with five replicates per compound. Each plate contained doxycycline (5 µM) and DMSO controls. After incubation at 37 °C for 6 days in 5% CO2, visual assessment of Mf motility was performed and scored from 0 to 4 per well (where 0 = no movement and 4 = highly motile). DNA extraction per sample was performed using the QIAmp DNA Mini Kit before quantitative PCR was performed to obtain the ratio of Wolbachia Surface Protein gene copy number (wsp) to Glutathione S-Transferase gene copy number (gst)[36]. The DNA was amplified using the primers as indicated in Supplementary Table 6.
The wsp:gst ratio data allowed for normalisation of the Wolbachia level to the Mf biomass for each well. The change in wsp:gst for each compound compared to the DMSO control was calculated before normalisation to the onboard doxycycline control to allow for inter-assay comparison.

THP-1 cells = test: Mammalian cell viability counter-screen (CellTiter-Blue); format: cell-based, human; conditions: Homo sapiens, 48 h, read-out: HTS IC50 mammalian toxicity
Description: The human monocytic THP-1 cell line (ATCC® TIB-202) used for mammalian cytotoxicity evaluation was routinely cultured in roller bottles. Growth media consisted of RPMI 1640 supplemented with 10% FBS and 2 mM L-glutamine. Cells were maintained at 37 °C with 95% humidity in 5% CO2 in a shaking incubator.
All compounds selected for secondary IC50 screen were tested in parallel for mammalian cell viability using the CellTiter-Blue® Cell Viability Assay. THP1 cells were removed from culture and plated at 1 × 10^4 cells/well (40 µl) into 384-well assay ready plates and incubated at 37 °C, 5% CO2 for 48 h at 95% humidity. After the addition of CellTiter-Blue Viability reagent (8 µl of a 1:6 dilution) the assay plates were incubated for a further 2 h before fluorescence detected using a PerkinElmer EnVision™ plate reader.

SMILES	Rat hepatocytes CLint (Rat hepatocyte clearance)	Solubility (in words) [1]	solubility [1]	Wolbachia reduction after a single day of exposure [2]	pIC50 (THP-1 cells)
CCc1ccc(CN2CCCC2c2nc(C(=O)N(C)C)cs2)s1 (stereo not shown) [4A, 2-(1-((5-ethylthiophen-2-yl)methyl)pyrrolidin-2-yl)-N,N-dimethylthiazole-4-carboxamide]	> 300 µl/min/1x106 cells	excellent	> 1000 µM	57–67%	< 4.51
COc1ccc(CC(=O)Nc2[nH]nc(C)c2-c2ccccc2)c(Cl)c1 [2A, 2-(2-chloro-4-methoxyphenyl)-N-(3-methyl-4-phenyl-1H-pyrazol-5-yl)acetamide]	262.8 µl/min/1x106 cells	–	71 µM (≈ 25.3 µg/mL)	57–67%	< 4.51
Cc1nccc(N2CCC(C(=O)N(C)CCN(C)S(=O)(=O)c3ccc(Br)cc3)CC2)n1 [1A, N-(2-((4-bromo-N-methylphenyl)sulfonamido)ethyl)-N-methyl-1-(2-methylpyrimidin-4-yl)piperidine-4-carboxamide]	31.1 µl/min/1x106 cells	–	663 µM (≈ 338 µg/mL)	57–67%	< 4.51
Cc1nc(C(=O)NC(C)c2ccc(F)cc2)c(NC(=O)Cc2ccccc2)[nH]1 (stereo not shown) [5A, N-(1-(4-fluorophenyl)ethyl)-2-methyl-5-(2-phenylacetamido)-1H-imidazole-4-carboxamide]	8.0 µl/min/1x106 cells	lower	12 µM (≈ 4.57 µg/mL)	57–67%	< 4.51
CC1COCCN1c1cc(OCc2ccccc2)nc(-c2nccn2C)n1 (stereo not shown) [3A, 4-(6-(benzyloxy)-2-(1-methyl-1H-imidazol-2-yl)pyrimidin-4-yl)-3-methylmorpholine]	147.0 µl/min/1x106 cells	–	538 µM (≈ 197 µg/mL)	42%	< 4.51
